The test system of one series is HIV-1 BaL. The experiment in a line: Antiretroviral potency with and without INK128 in PBLs infected with HIV BaL. The class given is cell-based. Conditions: Human immunodeficiency virus 1, BAL, PBMC, PBMCs, two donors. As for the experimental part: PBLs were separated from buffy coats by density centrifugation over Ficoll-Hypaque (Sigma™), and activated by culture in the presence of 1 μg/mL anti-human CD3 antibody (clone x35, Fisher Scientific™) and 2 μg/mL anti-human CD28 antibody (Clone CD28.6, eBioscience™) for 3 days. Activated cells were infected by incubation with virus at a multiplicity of infection (MOI) of 0.001 for 2 hours. Infected cells were washed three times with PBS and cultured in 5% CO2 at 37° C., in RPMI/10% FBS supplemented with 100 units/mL IL-2 (Roche™) and antiviral drugs, in 96-well flat-bottom plates at a density of […] PBLs per 200 μL. Following 3 d of culture, half of the medium was replaced with fresh medium containing IL-2 and antiviral drugs. On day 7, viral replication was measured by p24 ELISA (Coulter) in culture supernatants and cell viability was measured by MTT assays.
Available ARTs target the HIV lifecycle steps of entry, reverse transcription, integration, and maturation. […] In addition, by targeting virus transcription, INK128 could have favorable interactions with inhibitors of reverse transcription (RTIs), integration (Hs), and protease (PIs). […] We conducted these assays in activated PBLs infected with R5 HIV BaL and treated with various dilutions of Maraviroc (CCR5 antagonist), Efavirenz (RTI), Raltegravir (II), and Indinavir (PI). INK128 was used at low concentrations (<EC50) to better detect changes in ART potency (Table 7).
Prism software. Data are from 2 experiments, each with a different donor.

For another series, the system named is HIV-1. Put plainly: HIV production in PHA activated PBMCs, p24 ELISA day 7. Conditions: p24 day 7. (An ELISA detects its analyte on a solid surface through an enzyme-linked reagent.)
Where [1] appears, read: +3 nM INK128, read-out: EC50 (geometric mean).
Setting [2] is: +10 nM INK128, read-out: EC50 (geometric mean).
[3] abbreviates: No INK128, read-out: EC50 (geometric mean).

Like-named read-outs stand apart in the source and are kept apart here.

In general, EC50 refers to the concentration that produces a half-maximal response.

On to `O=C1Nc2ccc(Cl)cc2[C@@](C#CC2CC2)(C(F)(F)F)O1` [EFV], for which the EC50 with HIV-1 BaL (setting [1]) turned out to be 0.51 nM; in the series with HIV-1 BaL (setting [2]), 0.51 nM; with HIV-1 BaL (setting [3]) it was 0.52 nM.

Regarding `CC(C)(C)NC(=O)[C@@H]1CN(Cc2cccnc2)CCN1C[C@@H](O)C[C@@H](Cc1ccccc1)C(=O)N[C@H]1c2ccccc2C[C@H]1O` [IND], the results for the 50% effective concentration (EC50) in the series with HIV-1 BaL (setting [1]), in the series with HIV-1 BaL (setting [2]) and with HIV-1 BaL (setting [3]) were 3.14 nM, 3 nM and 3.84 nM, respectively.

As for `Cc1nnc(C(=O)NC(C)(C)c2nc(C(=O)NCc3ccc(F)cc3)c(O)c(=O)n2C)o1` [RAL], the half-maximal effective concentration (EC50) in the series with HIV-1 BaL (read-out: EC50 (geometric mean), +3 nM INK128) was found to be 0.81 nM; in the series with HIV-1 BaL (read-out: EC50 (geometric mean), +10 nM INK128) it was 0.57 nM; in the series with HIV-1 BaL (read-out: EC50 (geometric mean), No INK128), 0.65 nM.

As for `Nc1ccc(-c2ccc3ncc4ccc(=O)n(-c5cccc(C(F)(F)F)c5)c4c3c2)cn1` [Torin-2, 9-(6-Amino-3-pyridinyl)-1-[3-(trifluoromethyl)phenyl]-benzo[h]-1,6-naphthyridin-2(1H)-one], the “HIV inhibition in vitro” value with HIV-1 is recorded as “inhibits HIV in vitro”. Also, the cell toxicity result in the series with PBMCs is “absence of cell toxicity”.

The record behind these values is US11364242B2, “Treatment agents for inhibiting HIV and cancer in HIV infected patients” (UNIVERSITY OF MARYLAND, BALTIMORE, priority 2015, dated 2022).
